From PubChem BioAssay AID330 (DTP/NCI, 2004)
Several values for one entry are separate records, joined by “and”; a condition that tells them apart may be missing. Identical values can stand only once. Inconclusive results and toxic doses are left out.

Test system: P388 leukemia ip, CD2F1 mice, survival T/C
Test: NCI In Vivo Anticancer Drug Screen. Data for tumor model P388 Leukemia (intraperitoneal) in CD2F1 (CDF1) mice
Details: endpoint: median survival time, higher = longer survival
Method in brief: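 Mice carrying the transplanted tumor received test compound or vehicle. Survival was recorded in each group, and the value is the treated-group measurement divided by that of the vehicle-treated control group.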

[1] = dose: 50.0 mg/kg/injection, schedule: Q01DX005 (ip), vehicle: saline
[2] = dose: 100.0 mg/kg/injection, schedule: Q01DX005 (ip), vehicle: saline
[3] = dose: 60.0 mg/kg/injection, schedule: Q01DX005 (ip), vehicle: Klucel (hydroxypropylcellulose) (HPC)
[4] = dose: 120.0 mg/kg/injection, schedule: Q01DX005 (ip), vehicle: Klucel (hydroxypropylcellulose) (HPC)
[5] = dose: 240.0 mg/kg/injection, schedule: Q01DX005 (ip), vehicle: Klucel (hydroxypropylcellulose) (HPC)
[6] = dose: 100.0 mg/kg/injection, schedule: Q04DX003 (ip), vehicle: Klucel (hydroxypropylcellulose) (HPC)
[7] = dose: 200.0 mg/kg/injection, schedule: Q04DX003 (ip), vehicle: Klucel (hydroxypropylcellulose) (HPC)
[8] = dose: 50.0 mg/kg/injection, schedule: Q01DX005 (ip), vehicle: saline with Tween-80
[9] = dose: 100.0 mg/kg/injection, schedule: Q01DX005 (ip), vehicle: saline with Tween-80
[10] = dose: 200.0 mg/kg/injection, schedule: Q01DX005 (ip), vehicle: saline with Tween-80
[11] = dose: 100.0 mg/kg/injection, schedule: Q01DX001 (ip), vehicle: Klucel (hydroxypropylcellulose) (HPC)
[12] = dose: 200.0 mg/kg/injection, schedule: Q01DX001 (ip), vehicle: Klucel (hydroxypropylcellulose) (HPC)
[13] = dose: 50.0 mg/kg/injection, schedule: Q01DX005 (ip), vehicle: Klucel (hydroxypropylcellulose) (HPC)
[14] = dose: 100.0 mg/kg/injection, schedule: Q01DX005 (ip), vehicle: Klucel (hydroxypropylcellulose) (HPC)
[15] = dose: 50.0 mg/kg/injection, schedule: Q01DX009 (ip), vehicle: Klucel (hydroxypropylcellulose) (HPC)
[16] = dose: 100.0 mg/kg/injection, schedule: Q01DX009 (ip), vehicle: Klucel (hydroxypropylcellulose) (HPC)
[17] = dose: 200.0 mg/kg/injection, schedule: Q01DX009 (ip), vehicle: Klucel (hydroxypropylcellulose) (HPC)
[18] = dose: 12.5 mg/kg/injection, schedule: Q01DX009 (ip), vehicle: saline with Tween-80
[19] = dose: 25.0 mg/kg/injection, schedule: Q01DX009 (ip), vehicle: saline with Tween-80
[20] = dose: 50.0 mg/kg/injection, schedule: Q01DX009 (ip), vehicle: saline with Tween-80
[21] = dose: 200.0 mg/kg/injection, schedule: Q01DX005 (ip), vehicle: Klucel (hydroxypropylcellulose) (HPC)
[22] = dose: 100.0 mg/kg/injection, schedule: Q01DX009 (ip), vehicle: saline with Tween-80
[23] = dose: 200.0 mg/kg/injection, schedule: Q01DX009 (ip), vehicle: saline with Tween-80

With `CCOC1=N[C@H](C)[C@H](C)N1` the T/C [1] was 100 % of control and the T/C [2] was 103 % of control.
For `c1csc(-c2cc(-c3cc(-c4cccs4)[nH]n3)n[nH]2)c1`, the T/C [3] was 102 % of control, the T/C [4] was 96 % of control and the T/C [5] was 90 % of control.
In the case of `O=C(c1ccccc1)c1cnc2ccccn12`, the T/C [6] is reported as 100 % of control and the T/C [7] is reported as 100 % of control.
For `[Cl][Pt+2][Cl].[NH-]C1CCCC1[NH-]` (configuration not stated), the T/C (dose: 3.13 mg/kg/injection, schedule: Q04DX002 (ip), vehicle: saline with Tween-80) was 158 % of control, the T/C (dose: 6.25 mg/kg/injection, schedule: Q04DX002 (ip), vehicle: saline with Tween-80) was 198 % of control and 190 % of control and 171 % of control and the T/C (dose: 12.5 mg/kg/injection, schedule: Q04DX002 (ip), vehicle: saline with Tween-80) was 210 % of control and 197 % of control and 222 % of control. For the same compound, the T/C (dose: 25.0 mg/kg/injection, schedule: Q04DX002 (ip), vehicle: saline with Tween-80) was 235 % of control and 112 % of control.
`CCC(CC)C(=O)NCC(=O)NO` was tested, and the T/C (dose: 25.0 mg/kg/injection, schedule: Q01DX005 (ip), vehicle: saline with Tween-80) was 100 % of control, the T/C [8] was 103 % of control and the T/C [9] was 100 % of control. For the same compound, the T/C [10] was 95 % of control.
In the case of `COc1cc2c(cc1OC)C(Cc1cc(Br)sc1Br)N(C(C)=O)CC2` (configuration not stated), the T/C [11] is reported as 101 % of control, the T/C [12] is reported as 101 % of control and the T/C (dose: 400.0 mg/kg/injection, schedule: Q01DX001 (ip), vehicle: Klucel (hydroxypropylcellulose) (HPC)) is reported as 113 % of control.
For `NC(C(=O)O)C1C=CCC1` (configuration not stated), the T/C [13] was 106 % of control and the T/C [14] was 99 % of control.
With `O=Cc1ccccc1` the T/C (dose: 12.5 mg/kg/injection, schedule: Q01DX009 (ip), vehicle: Klucel (hydroxypropylcellulose) (HPC)) was 98 % of control, the T/C (dose: 25.0 mg/kg/injection, schedule: Q01DX009 (ip), vehicle: Klucel (hydroxypropylcellulose) (HPC)) was 99 % of control and 100 % of control and 115 % of control and the T/C [15] was 100 % of control and 103 % of control and 107 % of control. The T/C [16] was 100 % of control and 97 % of control and 98 % of control, the T/C [17] was 100 % of control and 109 % of control and 95 % of control and the T/C (dose: 0.25 % in 0.5 ml injection vol, schedule: Q01DX009 (ip), vehicle: water) was 99 % of control. The T/C (dose: 400.0 mg/kg/injection, schedule: Q01DX009 (ip), vehicle: Klucel (hydroxypropylcellulose) (HPC)) was 93 % of control and 98 % of control, the T/C (dose: 0.5 % in 0.5 ml injection vol, schedule: Q01DX009 (ip), vehicle: water) was 100 % of control and the T/C (dose: 1.0 % in 0.5 ml injection vol, schedule: Q01DX009 (ip), vehicle: water) was 100 % of control.
For `N#CN(Cc1ccccc1)C(c1ccccc1)(c1ccccc1)c1ccccc1`, the T/C [11] was 90 % of control and the T/C [12] was 91 % of control.
With `Cc1cc(=O)n(-c2cccc3ccccc23)c(C)c1C(=O)O` the T/C [8] was 102 % of control and the T/C [9] was 94 % of control.
For `CC(C)OC(=O)Oc1cccs1`, the T/C [18] was 100 % of control, the T/C [19] was 109 % of control and the T/C [20] was 100 % of control.
`C/C(=N/N/C=N/S(C)(=O)=O)c1ccccc1` was tested, and the T/C [13] was 103 % of control, the T/C [14] was 100 % of control and the T/C [21] was 99 % of control.
`S=P12OCCC(CO1)O2` (configuration not stated) was tested, and the T/C [6] was 100 % of control, the T/C [7] was 97 % of control and the T/C (dose: 400.0 mg/kg/injection, schedule: Q04DX003 (ip), vehicle: Klucel (hydroxypropylcellulose) (HPC)) was 97 % of control.
`Cc1ccccc1NC(=O)Nc1ccc(N(CCCl)CCCl)cc1` was tested, and the T/C (dose: 50.0 mg/kg/injection, schedule: Q01DX001 (ip), vehicle: Klucel (hydroxypropylcellulose) (HPC)) was 92 % of control, the T/C [11] was 109 % of control and the T/C [12] was 120 % of control.
In the case of `C[C@H](N)C(=O)N[C@@H]1[C@H]2C(=C(O)C[C@@H](O)[C@@H]2O)C(=O)O[C@@H]1C`, the T/C (dose: 150.0 mg/kg/injection, schedule: Q01DX005 (ip), vehicle: saline) is reported as 115 % of control and the T/C (dose: 600.0 mg/kg/injection, schedule: Q01DX005 (ip), vehicle: suspension in saline) is reported as 153 % of control.
For `COc1cc2c(cc1O)C1CC(CC3CCCCN31)OC(=O)/C=C\c1ccc(O)c-2c1` (configuration not stated), the T/C (dose: 25.0 mg/kg/injection, schedule: Q04DX003 (ip), vehicle: saline) was 100 % of control, the T/C (dose: 50.0 mg/kg/injection, schedule: Q04DX003 (ip), vehicle: saline) was 107 % of control and 109 % of control and the T/C (dose: 100.0 mg/kg/injection, schedule: Q04DX003 (ip), vehicle: saline) was 102 % of control and 110 % of control and 121 % of control. The T/C (dose: 200.0 mg/kg/injection, schedule: Q04DX003 (ip), vehicle: saline) was 100 % of control and 102 % of control and 105 % of control.
For `CS(=O)(=O)O/C=C1\CCc2ccccc2C1=O`, the T/C [8] was 98 % of control, the T/C [9] was 98 % of control and the T/C [10] was 105 % of control.
For `C[Si]1(C)N[Si](C)(C)N[Si](C)(C)N1`, the T/C [20] was 103 % of control, the T/C [22] was 95 % of control and the T/C [23] was 108 % of control.
For `Cc1ccccc1-n1c(C)nc2c(cnn2C)c1=O`, the T/C [13] was 100 % of control, the T/C [14] was 95 % of control and the T/C [21] was 97 % of control.
For `Clc1cccc2c(SCCCCCCSc3c4ccccc4nc4c(Cl)cccc34)c3ccccc3nc12`, the T/C [3] was 92 % of control and the T/C [4] was 88 % of control.
For `CN1CCN(CC(=O)N/N=C/c2ccc([N+](=O)[O-])o2)CC1`, the T/C [15] was 101 % of control and 94 % of control, the T/C [16] was 99 % of control and 101 % of control and the T/C [17] was 107 % of control.
With `CN1C(=O)/C(=C2\SC(=O)N(CNc3ccc(Br)cc3)C2=O)c2ccccc21` the T/C (dose: 60.0 mg/kg/injection, schedule: Q01DX005 (ip), vehicle: Klucel + Tween-80) was 88 % of control and the T/C (dose: 240.0 mg/kg/injection, schedule: Q01DX005 (ip), vehicle: Klucel + Tween-80) was 89 % of control.
For `Cn1c(CN(CCN(Cc2nc3ccccc3n2C)Cc2nc3ccccc3n2C)Cc2nc3ccccc3n2C)nc2ccccc21`, the T/C [8] was 100 % of control, the T/C [9] was 96 % of control and the T/C [10] was 101 % of control.
`CCC(=O)O[C@H]1CC[C@H]2[C@@H]3[C@@H](C)CC4=CC(=O)CC[C@]4(C)[C@H]3CC[C@]12C` was tested, and the T/C (dose: 100.0 mg/kg/injection, schedule: Q04DX003 (ip), vehicle: saline with Tween-80) was 90 % of control, the T/C (dose: 200.0 mg/kg/injection, schedule: Q04DX003 (ip), vehicle: saline with Tween-80) was 90 % of control and the T/C (dose: 400.0 mg/kg/injection, schedule: Q04DX003 (ip), vehicle: saline with Tween-80) was 90 % of control.
For `O=C1SC(Nc2cccc([N+](=O)[O-])c2)/C(=N\N=C2/C(Nc3cccc([N+](=O)[O-])c3)SC(=O)N2Cc2ccccc2)N1Cc1ccccc1` (configuration not stated), the T/C [13] was 92 % of control and the T/C [14] was 87 % of control.
In the case of `N#Cc1ncc(C[P+](c2ccccc2)(c2ccccc2)c2ccccc2)nc1N`, the T/C [18] is reported as 91 % of control, the T/C [19] is reported as 94 % of control and the T/C [20] is reported as 95 % of control.
With `O=C(CC(C(=O)O)N1CCNCC1)c1ccc(Cl)cc1` (configuration not stated) the T/C [1] was 100 % of control, the T/C [2] was 107 % of control and the T/C (dose: 200.0 mg/kg/injection, schedule: Q01DX005 (ip), vehicle: saline) was 101 % of control.
For `NNc1nc2ccccc2s1`, the T/C [18] was 105 % of control, the T/C [19] was 107 % of control and the T/C [20] was 98 % of control.
`COc1cc(Br)cc(C(=O)O)c1OC` was tested, and the T/C (dose: 25.0 mg/kg/injection, schedule: Q01DX009 (ip), vehicle: other) was 101 % of control, the T/C (dose: 50.0 mg/kg/injection, schedule: Q01DX009 (ip), vehicle: other) was 106 % of control and the T/C [20] was 93 % of control. For the same compound, the T/C (dose: 100.0 mg/kg/injection, schedule: Q01DX009 (ip), vehicle: other) was 102 % of control, the T/C [22] was 93 % of control and the T/C [23] was 100 % of control. For the same compound, the T/C (dose: 400.0 mg/kg/injection, schedule: Q01DX009 (ip), vehicle: saline with Tween-80) was 102 % of control.
`NC(=S)N/N=C\C12CC3CC(CC(C3)C1)C2` was tested, and the T/C [20] was 96 % of control and the T/C [22] was 108 % of control.
`c1ccc2c(SCCCSc3c4ccccc4nc4ccccc34)c3ccccc3nc2c1` was tested, and the T/C [3] was 97 % of control, the T/C [4] was 91 % of control and the T/C [5] was 95 % of control.
For `C/C(=C\c1ccccc1)C1C(C#N)C(=O)NC(=O)C1C#N` (configuration not stated), the T/C [15] was 101 % of control, the T/C [16] was 105 % of control and the T/C [17] was 106 % of control.
`CC(=O)Nc1nc(C)c([N+](=O)[O-])s1` was tested, and the T/C [20] was 105 % of control, the T/C [22] was 93 % of control and the T/C [23] was 100 % of control.
